Test results published in patent US20240408271A1, “Functionalized Linkers in Responsive Biomaterials” (priority 2021, published 2024).

Assays:
[1] = cited from earlier work
[2] = EPTK degradation and ethyl pyruvate release in H2O2 (NMR, HPLC); assay type: physicochemical
Source text: FIG. 13B is an NMR spectrum of the thioketal peak after three days of degradation in varying ROS concentrations
A new thioketal linker was synthesized containing the small molecule therapeutic ethyl pyruvate (FIG. 12).

[3] = test system: MC3T3-E1 cells; assay type: cell-based; conditions: MC3T3-E1, + 1 mM H2O2
Source text: FIG. 14C is a graph showing a cell saving study capability test of released ethyl pyruvate and degraded ethyl pyruvate.
(§1) As shown in FIGS. 14A and 14B, in vitro cytotoxicity profiles were first established for H2O2 and ethyl pyruvate with MC3T3-E1 pre-osteoblast cells.

[4] = test system: MC3T3-E1 pre-osteoblast cells
Source text: FIG. 14A is a graph showing in vitro testing with MC3T3-E1 pre-osteoblast cells to establish cytotoxicity of hydrogen peroxide.
FIG. 14B is a graph showing in vitro testing with MC3T3-E1 pre-osteoblast cells to establish cytotoxicity of ethyl pyruvate.
as §1

CC(=O)[C@H]1CC[C@H]2[C@@H]3CCC4=CC(=O)CC[C@]4(C)[C@H]3CC[C@]12C [progesterone]
Log P [1]: 3.78

ethyl pyruvate thioketal [EPTK]
release of intact ethyl pyruvate ([2]; 200 mM H2O2 for 48 hrs, HPLC): intact ethyl pyruvate matching the original drug's character was released | degradation of thioketal bond ([2]; escalating doses of H2O2, NMR, three days): dose-dependent degradation | rate of ethyl pyruvate release ([2]; increasing doses of ROS): increased the rate of ethyl pyruvate release | protection of cells from oxidative toxicity [3]: some inherent antioxidant protection

OO [H2O2, hydrogen peroxide]
cell death ([4]; dose of 1 mM, over 24 hrs, MC3T3-E1): ~50%

Cc1ccc(C(=O)c2ccc(CC(=O)O)n2C)cc1 [tolmetin]
Log P [1]: 2.07

CCOC(=O)C(C)=O [ethyl pyruvate]
dose at which toxicity is displayed ([4]; mouse): ≥ 10 mM | protection of cells from oxidative toxicity [3]: robust protection
